Test results published in the supplement of paper PMC10307832.

Key:
Experiment in all cases: relative viability (nuclei count vs DMSO), 5 days (fraction); higher = more cells survive
HCC-15 = system: HCC-15
Summary of the method: (§1)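 Lung cancer cell lines in 1536-well plates were dosed by pin tool the day after seeding, either with one drug alone or with a fixed anchor-drug dose plus five library-drug doses (not always all listed) in √10 steps. After 5 days, cells were fixed and their nuclei stained in one step (final 0.05% Triton X-100, 1% formaldehyde, 1 ug/ml Hoechst), then counted on 4× images. Relative viability is the nuclei count in treated wells divided by that in vehicle wells. Values are medians of duplicate plates.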

NCI-H1563 = system: NCI-H1563
Summary of the method: as §1

COR-L23 = system: COR-L23
Summary of the method: as §1

PC-3 [JPC-3] = system: PC-3 [JPC-3]
Summary of the method: as §1

NCI-H2228 = system: NCI-H2228
Summary of the method: as §1

RERF-LC-KJ = system: RERF-LC-KJ
Summary of the method: as §1

EKVX = system: EKVX
Summary of the method: as §1

NCI-H1734 = system: NCI-H1734
Summary of the method: as §1

LK-2 = system: LK-2
Summary of the method: as §1

HCC-827 = system: HCC-827
Summary of the method: as §1

PC-14 = system: PC-14
Summary of the method: as §1

CAL-12T = system: CAL-12T
Summary of the method: as §1

SW 1573 = system: SW 1573
Summary of the method: as §1

NCI-H1355 = system: NCI-H1355
Summary of the method: as §1

NCI-H661 = system: NCI-H661
Summary of the method: as §1

ABC-1 = system: ABC-1
Summary of the method: as §1

NCI-H520 = system: NCI-H520
Summary of the method: as §1

H3255 = system: H3255
Summary of the method: as §1

SK-MES-1 = system: SK-MES-1
Summary of the method: as §1

NCI-H2405 = system: NCI-H2405
Summary of the method: as §1

NCI-H1437 = system: NCI-H1437
Summary of the method: as §1

NCI-H322M = system: NCI-H322M
Summary of the method: as §1

NCI-H1650 = system: NCI-H1650
Summary of the method: as §1

NCI-H1651 = system: NCI-H1651
Summary of the method: as §1

## Clc1ccc(Nc2nnc(Cc3ccncc3)c3ccccc23)cc1 [Vatalanib] + N=C(N)NC(=N)NCCc1ccccc1 [Phenformin] (partner 250 µM)
HCC-15; first compound 0.04 µM
  relative viability: 0.487
HCC-15; first compound 0.1265 µM
  relative viability: 0.46
HCC-15; first compound 0.4 µM
  relative viability: 0.441
HCC-15; first compound 1.265 µM
  relative viability: 0.443
HCC-15; first compound 4 µM
  relative viability: 0.457
NCI-H1563; first compound 0.04 µM
  relative viability: 0.641
NCI-H1563; first compound 0.1265 µM
  relative viability: 0.673
NCI-H1563; first compound 0.4 µM
  relative viability: 0.666
NCI-H1563; first compound 1.265 µM
  relative viability: 0.712
NCI-H1563; first compound 4 µM
  relative viability: 0.639
COR-L23; first compound 0.04 µM
  relative viability: 0.442
COR-L23; first compound 0.1265 µM
  relative viability: 0.43
COR-L23; first compound 0.4 µM
  relative viability: 0.467
COR-L23; first compound 1.265 µM
  relative viability: 0.389
COR-L23; first compound 4 µM
  relative viability: 0.402
PC-3 [JPC-3]; first compound 0.04 µM
  relative viability: 0.456
PC-3 [JPC-3]; first compound 0.1265 µM
  relative viability: 0.465
PC-3 [JPC-3]; first compound 0.4 µM
  relative viability: 0.456
PC-3 [JPC-3]; first compound 1.265 µM
  relative viability: 0.493
PC-3 [JPC-3]; first compound 4 µM
  relative viability: 0.508
NCI-H2228; first compound 0.04 µM
  relative viability: 0.364
NCI-H2228; first compound 0.1265 µM
  relative viability: 0.317
NCI-H2228; first compound 0.4 µM
  relative viability: 0.335
NCI-H2228; first compound 1.265 µM
  relative viability: 0.366
NCI-H2228; first compound 4 µM
  relative viability: 0.322
RERF-LC-KJ; first compound 0.04 µM
  relative viability: 0.479
RERF-LC-KJ; first compound 0.1265 µM
  relative viability: 0.41
RERF-LC-KJ; first compound 0.4 µM
  relative viability: 0.443
RERF-LC-KJ; first compound 1.265 µM
  relative viability: 0.341
RERF-LC-KJ; first compound 4 µM
  relative viability: 0.425
EKVX; first compound 0.04 µM
  relative viability: 0.232
EKVX; first compound 0.1265 µM
  relative viability: 0.236
EKVX; first compound 0.4 µM
  relative viability: 0.205
EKVX; first compound 4 µM
  relative viability: 0.212
NCI-H1734; first compound 0.04 µM
  relative viability: 0.459
NCI-H1734; first compound 0.1265 µM
  relative viability: 0.328
NCI-H1734; first compound 0.4 µM
  relative viability: 0.463
NCI-H1734; first compound 1.265 µM
  relative viability: 0.322
NCI-H1734; first compound 4 µM
  relative viability: 0.346
LK-2; first compound 0.04 µM
  relative viability: 0.408
LK-2; first compound 0.1265 µM
  relative viability: 0.398
LK-2; first compound 0.4 µM
  relative viability: 0.381
LK-2; first compound 1.265 µM
  relative viability: 0.466
LK-2; first compound 4 µM
  relative viability: 0.393
HCC-827; first compound 0.04 µM
  relative viability: 0.413
HCC-827; first compound 0.1265 µM
  relative viability: 0.418
HCC-827; first compound 0.4 µM
  relative viability: 0.304
HCC-827; first compound 1.265 µM
  relative viability: 0.425
HCC-827; first compound 4 µM
  relative viability: 0.378
PC-14; first compound 0.04 µM
  relative viability: 0.552
PC-14; first compound 0.1265 µM
  relative viability: 0.466
PC-14; first compound 1.265 µM
  relative viability: 0.458
PC-14; first compound 4 µM
  relative viability: 0.541
CAL-12T; first compound 0.04 µM
  relative viability: 0.633
CAL-12T; first compound 0.1265 µM
  relative viability: 0.495
CAL-12T; first compound 0.4 µM
  relative viability: 0.328
CAL-12T; first compound 1.265 µM
  relative viability: 0.539
CAL-12T; first compound 4 µM
  relative viability: 0.567
SW 1573; first compound 0.04 µM
  relative viability: 0.402
SW 1573; first compound 0.1265 µM
  relative viability: 0.374
SW 1573; first compound 0.4 µM
  relative viability: 0.368
SW 1573; first compound 1.265 µM
  relative viability: 0.324
SW 1573; first compound 4 µM
  relative viability: 0.347
NCI-H1355; first compound 0.04 µM
  relative viability: 0.511
NCI-H1355; first compound 0.1265 µM
  relative viability: 0.419
NCI-H1355; first compound 0.4 µM
  relative viability: 0.444
NCI-H1355; first compound 1.265 µM
  relative viability: 0.431
NCI-H1355; first compound 4 µM
  relative viability: 0.401
NCI-H661; first compound 0.04 µM
  relative viability: 0.32
NCI-H661; first compound 0.1265 µM
  relative viability: 0.248
NCI-H661; first compound 0.4 µM
  relative viability: 0.304
NCI-H661; first compound 1.265 µM
  relative viability: 0.267
NCI-H661; first compound 4 µM
  relative viability: 0.286
ABC-1; first compound 0.04 µM
  relative viability: 0.241
ABC-1; first compound 0.1265 µM
  relative viability: 0.242
ABC-1; first compound 1.265 µM
  relative viability: 0.262
ABC-1; first compound 4 µM
  relative viability: 0.222
NCI-H520; first compound 0.04 µM
  relative viability: 0.722
NCI-H520; first compound 0.1265 µM
  relative viability: 0.412
NCI-H520; first compound 0.4 µM
  relative viability: 0.83
NCI-H520; first compound 1.265 µM
  relative viability: 0.493
NCI-H520; first compound 4 µM
  relative viability: 0.479
H3255; first compound 0.04 µM
  relative viability: 0.397
H3255; first compound 0.1265 µM
  relative viability: 0.392
H3255; first compound 0.4 µM
  relative viability: 0.316
H3255; first compound 1.265 µM
  relative viability: 0.368
H3255; first compound 4 µM
  relative viability: 0.368
SK-MES-1; first compound 0.04 µM
  relative viability: 0.659
SK-MES-1; first compound 0.1265 µM
  relative viability: 0.638
SK-MES-1; first compound 0.4 µM
  relative viability: 0.753
SK-MES-1; first compound 1.265 µM
  relative viability: 0.572
SK-MES-1; first compound 4 µM
  relative viability: 0.537
NCI-H2405; first compound 0.04 µM
  relative viability: 0.425
NCI-H2405; first compound 0.1265 µM
  relative viability: 0.376
NCI-H2405; first compound 1.265 µM
  relative viability: 0.391
NCI-H2405; first compound 4 µM
  relative viability: 0.368
NCI-H1437; first compound 0.04 µM
  relative viability: 0.341
NCI-H1437; first compound 0.1265 µM
  relative viability: 0.281
NCI-H1437; first compound 0.4 µM
  relative viability: 0.298
NCI-H1437; first compound 1.265 µM
  relative viability: 0.247
NCI-H1437; first compound 4 µM
  relative viability: 0.273
NCI-H322M; first compound 0.04 µM
  relative viability: 0.755
NCI-H322M; first compound 0.1265 µM
  relative viability: 0.789
NCI-H322M; first compound 0.4 µM
  relative viability: 0.826
NCI-H322M; first compound 1.265 µM
  relative viability: 0.685
NCI-H322M; first compound 4 µM
  relative viability: 0.759
NCI-H1650; first compound 0.04 µM
  relative viability: 0.401
NCI-H1650; first compound 0.1265 µM
  relative viability: 0.307
NCI-H1650; first compound 0.4 µM
  relative viability: 0.36
NCI-H1650; first compound 1.265 µM
  relative viability: 0.364
NCI-H1650; first compound 4 µM
  relative viability: 0.403
NCI-H1651; first compound 0.04 µM
  relative viability: 0.342
NCI-H1651; first compound 0.1265 µM
  relative viability: 0.29
NCI-H1651; first compound 0.4 µM
  relative viability: 0.311
NCI-H1651; first compound 1.265 µM
  relative viability: 0.312
NCI-H1651; first compound 4 µM
  relative viability: 0.405
